Assays:
[1] = molecular target: HAV 3Cpro (Human hepatitis A virus genotype IB, UniProt P08617); assay: Optimized FRET protease assay, HAV 3Cpro (Example 3); format: biochemical
Protocol: Fluorogenic substrates with Edans and Dabcyl as a donor and quencher pair were purchased from Bachem (coronavirus substrate) or synthesized by GenScript. The viral proteases and the corresponding fluorogenic substrates are listed in Table 5, along with their sources.
Stock solutions (10 mM) of the substrates and the compounds were prepared in dimethyl sulfoxide (DMSO) and diluted in assay buffer. The assay buffer comprised 20 mM HEPES buffer containing NaCl (0 mM for HAV 3Cpro and 200 mM for all other proteases), 0.4 mM EDTA, Glycerol (60% for NV and MD145 3CLpro and 30% for TGEV and 229E 3CLpro), and 6 mM (NV and MD145 3CLpro and HAV 3Cpro)_or 4 mM (all other proteases) dithiothreitol (DTT) at pH 6 (coronavirus 3CLpro) or 8 (all other proteases). Each protease was mixed with serial dilutions of each compound or with DMSO in 25 μl of assay buffer and incubated at 37° C. for 30 min, followed by the addition of 25 μl of assay buffer containing substrate. Fluorescence readings were obtained using an excitation wavelength of 360 nm and an emission wavelength of 460 nm on a fluorescence microplate reader (FLx800; Biotek, Winooski, Vt.) at 1 h following the addition of substrate. The relative fluorescence units (RFU) were determined by subtracting background values (substrate-containing well without protease) from the raw fluorescence values. […]

[2] = PK and oral bioavailability studies in rats; settings: 20 mg/Kg (body weight), IV or PO
[3] = test system: Teschovirus; assay: organism not typed; format: cell-based, porcine teschovirus; settings: read-out: Inhibition [ED50 (μM)] against various viruses: Picornavirus, Teschovirus
[4] = molecular target: HAV 3Cpro (full-length, 6 His, recombinant) (Human hepatitis A virus genotype IB, UniProt P08617); assay: biochemical; set-up: species or system human hepatitis A virus (strain HM175)
Chain of HAV 3Cpro (full-length, 6 His, recombinant) (P08617 1520-1738): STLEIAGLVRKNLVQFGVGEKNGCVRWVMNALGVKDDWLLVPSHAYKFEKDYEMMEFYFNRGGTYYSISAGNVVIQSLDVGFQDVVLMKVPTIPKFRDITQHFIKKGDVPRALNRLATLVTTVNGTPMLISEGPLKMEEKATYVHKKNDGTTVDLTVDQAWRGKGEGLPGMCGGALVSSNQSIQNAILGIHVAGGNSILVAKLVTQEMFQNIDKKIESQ

[5] = test system: FCV; assay: Cell-based screening, FCV in CRFK cells (Example 2); settings: Feline calicivirus, CRFK, read-out: Inhibition [ED50 (μM)] against various viruses: Calicivirus, FCV
Protocol: (§1) 3. Cell-based screening of inhibitor. The effects of each inhibitor on the viral replication were examined. The list of viruses and corresponding cell lines are listed above in Table 2. Briefly, confluent cells were inoculated with virus at a MOI of 5 or 0.05 for 1 hr, and medium was replaced with medium containing mock-medium or each compound (up to 100 μM). The virus infected cells were further incubated for up to 96 hrs, and the replication of virus was measured by TCID50 assay with the 10-fold dilution of each sample used for virus titration (Reed and Muench, 1938). In some viruses, the virus protein and genome expression levels were detected by Western blot analysis and real-time qRT-PCR, respectively, as described below. The IC50s of the compounds were calculated.

[6] = test system: MNV-1; assay: Cell culture system, MNV-1 replication in RAW267.4 cells (Example 3); format: cell-based, murine norovirus; settings: RAW267.4 cells
[7] = test system: FCV; assay: Cell culture system, FCV replication in CRFK cells (Example 3); format: cell-based, feline calicivirus; settings: CRFK cells
[8] = test system: 229E; assay: Cell-based screening, 229E in MRC-5 cells (Example 2); settings: Human coronavirus 229E, MRC5, read-out: Inhibition [ED50 (μM)] against various viruses: Coronavirus, 229E
Protocol: as §1

[9] = molecular target: Norwalk virus 3CL protease (Norovirus, UniProt Q83883); assay: Recombinant NV protease fluorogenic substrate inhibition assay (Example 1); format: biochemical; settings: 30 min pre-incubation, 30° C., pH 8.0
Chain of Norwalk virus 3CL protease (Q83883 1101-1281): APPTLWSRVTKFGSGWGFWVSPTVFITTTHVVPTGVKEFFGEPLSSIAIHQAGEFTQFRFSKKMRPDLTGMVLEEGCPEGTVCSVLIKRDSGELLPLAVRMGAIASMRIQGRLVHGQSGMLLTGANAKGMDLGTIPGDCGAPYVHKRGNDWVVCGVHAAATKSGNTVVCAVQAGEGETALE
Protocol: After a 30 minute incubation period, 5 μL of 12 μM Edans-[…]-Dabcyl (SEQ ID NO:1) substrate in DMSO was then added and the increase in fluorescence was monitored for 30 minutes at an excitation and emission wavelength of 360 and 460 nm, respectively. Using a HORIBA FluoroMax 4 spectrofluorometer. Hydrolysis curves were linear. The final enzyme and substrate concentrations were 2.5 μM and 300 nM, respectively. […] Furthermore, the nature of the cap was also important (compare, for example, inhibitors A and D).

[10] = molecular target: SARS-CoV 3CLpro (codon-optimized, N-terminal 6 His, recombinant) (Severe acute respiratory syndrome coronavirus, UniProt P0C6X7); assay: biochemical
[11] = test system: MNV-1; assay: Cell-based screening, MNV-1 in RAW267.4 cells (Example 2); set-up: species or system murine norovirus; settings: Norwalk virus, RAW267.4, read-out: Inhibition [ED50 (μM)] against various viruses: Calicivirus, MNV-1
Protocol: as §1

[12] = test system: EV71; assay: Cell-based screening, EV71 in Vero cells (Example 2); set-up: species or system enterovirus 71; settings: Enterovirus A, EV71, Vero, read-out: Inhibition [ED50 (μM)] against various viruses: Picornavirus, EV71
Protocol: as §1

[13] = test system: FIPV; assay: Cell-based screening, FIPV in CRFK cells (Example 2); set-up: species or system feline infectious peritonitis virus; settings: Alphacoronavirus 1, CRFK, read-out: Inhibition [ED50 (μM)] against various viruses: Coronavirus, FIPV
Protocol: as §1

[14] = test system: MHV; assay: Cell-based screening, MHV in CCL-9.1 cells (Example 2); set-up: species or system mouse hepatitis virus; settings: Murine coronavirus, read-out: Inhibition [ED50 (μM)] against various viruses: Coronavirus, MHV
[15] = molecular target: recombinant 3C or 3CL of MD145 (Norovirus Hu/GII.4/MD145-12/1987/US (Maryland virus), UniProt Q8V0P3); assay: FRET protease assay, MD145 3CL (Example 2); format: biochemical, norovirus strain MD145
Chain of recombinant 3C or 3CL of MD145 (Q8V0P3 entry or part of it): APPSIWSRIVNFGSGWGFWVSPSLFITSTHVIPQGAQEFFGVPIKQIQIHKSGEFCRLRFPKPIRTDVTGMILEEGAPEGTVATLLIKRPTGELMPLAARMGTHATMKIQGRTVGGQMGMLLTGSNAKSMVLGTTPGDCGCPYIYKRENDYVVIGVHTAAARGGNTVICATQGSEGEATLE

[16] = test system: Norwalk virus (HG23 cells); assay: microbe, parasite or virus in culture; format: cell-based; settings: HG23, read-out: Inhibition [ED50 (μM)] against various viruses: Calicivirus, HG23 cells
[17] = test system: HAV; assay: Cell-based screening, HAV (Example 2); set-up: species or system hepatitis A virus; settings: Picornaviridae, read-out: Inhibition [ED50 (μM)] against various viruses: Picornavirus, HAV
Protocol: as §1

[18] = test system: TGEV; assay: Cell-based screening, TGEV in ST cells (Example 2); set-up: species or system transmissible gastroenteritis virus; settings: Alphacoronavirus 1, read-out: Inhibition [ED50 (μM)] against various viruses: Coronavirus, TGEV
Protocol: as §1

[19] = test system: 3CLpro of NV, MD145, MNV-1; format: biochemical, norovirus; settings: optimized FRET-based protease assay
[20] = molecular target: MD145 3CLpro (codon-optimized, full-length, N-terminal 6 His, recombinant) (Lordsdale virus, UniProt P54634); assay: biochemical; set-up: species or system norovirus strain MD145 (human norovirus GII)
Chain of MD145 3CLpro (codon-optimized, full-length, N-terminal 6 His, recombinant) (P54634 1009-1189): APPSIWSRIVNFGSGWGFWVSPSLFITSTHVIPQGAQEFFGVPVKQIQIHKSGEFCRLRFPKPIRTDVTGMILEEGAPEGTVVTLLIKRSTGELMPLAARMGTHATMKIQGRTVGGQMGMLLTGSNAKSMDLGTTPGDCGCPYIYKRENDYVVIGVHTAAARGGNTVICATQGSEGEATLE

[21] = test system: human norovirus (GII.12 HS206); assay: Gnotobiotic pig model of human norovirus infection, repeat at 100 mg/kg/day; format: in vivo; settings: Gn pigs
Text: After antiviral treatment or HuNoV inoculation, clinical signs and fecal virus shedding were monitored daily through day 14.

[22] = molecular target: TGEV 3CL protease (Porcine transmissible gastroenteritis coronavirus, UniProt P0C6Y5); assay: FRET-based protease assay, TGEV 3CL protease (Example 5); format: biochemical, TGEV Miller strain; settings: compound at 50 μM final concentration
Chain of TGEV 3CL protease (P0C6Y5 2879-3180): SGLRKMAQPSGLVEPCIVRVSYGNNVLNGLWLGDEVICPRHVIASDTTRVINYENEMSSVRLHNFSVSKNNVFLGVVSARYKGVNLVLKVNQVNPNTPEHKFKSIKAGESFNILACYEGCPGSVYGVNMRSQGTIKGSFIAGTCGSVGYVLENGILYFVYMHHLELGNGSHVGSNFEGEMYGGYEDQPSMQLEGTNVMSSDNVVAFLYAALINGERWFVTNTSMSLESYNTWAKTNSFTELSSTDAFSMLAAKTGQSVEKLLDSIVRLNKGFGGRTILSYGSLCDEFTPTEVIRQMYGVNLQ
Text: The 3CL proteases are highly conserved among all coronaviruses, and feline coronavirus 3CL protease is closely related TGEV 3CL protease. Therefore we cloned and expressed the TGEV 3CL protease for the FRET assay. The cDNA encoding the full length of 3CL protease of TGEV Miller strain was amplified with RT-PCR as previously described. The primers contained the nucleotide sequence of the 3CL protease for cloning as well as the nucleotides for 6 Histidine in the forward primer. The amplified product was subcloned to pET-28a(+) vector (GenScript, Piscataway, N.J.). The expression and purification of the 3CL protease was performed with a standard method described previously by our lab (Chang et al., 2012b; Takahashi et al., 2012; Tiew et al., 2011).
Our protease inhibitor compounds and commercial cathepsin inhibitors CA074-Me and E64d were prepared in DMSO as stock solutions (10 mM), and further diluted in assay buffer consisting of 20 mM HEPES, 0.4 mM EDTA, 30% glycerol, 120 mM NaCl, and 4 mM DTT at pH 6. […] TGEV 3CL protease at a final concentration of 0.1˜0.2 μM and the substrate (Dabcyl-[…]-Edans; SEQ ID NO:2) at 10 μM were used for the studies. The substrate was purchased from Bachem Americas, Inc (Torrance, Calif.). Compounds at various concentrations (0˜50 μM) were pre-incubated with TGEV 3CL protease in 25 μl for 30 min at 37° C., and the same volume of substrate was added to a 96-well black plate. The mixtures were then incubated at 37° C. for 60 min, and fluorescence readings were obtained on a microplate reader at 360 nm excitation and 480 nm emission wavelengths. The relative fluorescence units (RFU) were calculated by subtracting background (substrate control well without protease) from the fluorescence readings. The dose-dependent FRET inhibition curves were fitted with variable slope (four parameters) using GraphPad Prism software (La Jolla, Calif.) in order to determine the compound concentration that gives a half-maximum response (IC50).

[23] = test system: MNV-1; settings: MNV-1 passaged in the presence of the drug
[24] = test system: HAV; assay: Cell culture system, HAV replication in FRhK-4 cells (Example 3); format: cell-based, hepatitis A virus
[25] = test system: human norovirus (HuNoV); assay: Gnotobiotic pig model of human norovirus infection, first trial; format: in vivo, gnotobiotic (Gn) pigs
Text: We investigated if fecal norovirus shedding in human norovirus-inoculated gnotobiotic (Gn) pigs is altered the by treatment with GC376. […] On day 2 after antiviral treatment, they were inoculated orally with 1.0×10^10 genome equivalent (GE) of Human norovirus (GII.12 HS206). Rectal swabs were collected daily from each animal throughout the experiment, and fecal virus shedding and clinical signs were monitored daily until virus was not detectable by real-time qRT-PCR. The Table below summarizes the results.

[26] = oral 100 mg/kg once a day for 5 days
[27] = Gn pigs, oral 25 mg/kg twice a day 10 days then approx. 12.5 mg/kg twice a day 5 days
[28] = same regimen, detection limit 4.7 log10 GE/ml

Chain of HAV 3Cpro (P08617 1520-1738): as the sequence (P08617 1520-1738) above

## CC(C)C[C@H](NC(=O)OCc1ccccc1)C(=O)N[C@@H](CC1CCNC1=O)C(=O)C(=O)NC(C)C (stereo partly shown) [GC375]
[1]
  inhibitory effect on HAV 3Cpro (in words): weak but appreciable inhibitory effects
[2]
  oral bioavailability, % F: 16 % F
[3]
  EC50: 0.2 µM
[4]
  IC50: 42.6 ± 2.61 µM
[5]
  EC50: 4.5 µM
[6]
  antiviral effects against MNV-1: no effects at concentrations up to: > 50 µM
[7]
  antiviral effects against FCV: no effects at concentrations up to: > 50 µM
[8]
  EC50: 0.15 µM
[9]
  inhibitory activity against Norwalk virus 3CL protease (in words): devoid of inhibitory activity
[10]
  IC50: 4.66 ± 0.19 µM
[11]
  EC50: 85 µM
[12]
  EC50: 15 µM
[13]
  EC50: 1.5 µM
[14]
  EC50: 4.5 µM
[15]
  IC50: 6.4 µM
[16]
  EC50: 3.2 µM
[17]
  EC50: 20 µM
[18]
  EC50: 0.2 µM
[19]
  effect on the activity of 3CLpro of NV, MD145, MNV-1 (in words): lower than those of GC373 and GC376
[20]
  IC50: 4.03 µM

## CC(C)C[C@H](NC(=O)OCc1ccccc1)C(=O)N[C@@H](C[C@@H]1CCNC1=O)C(O)S(=O)(=O)[O-].[Na+] (stereo partly shown) [GC376]
[2]
  oral bioavailability, % F: 4 % F
[21]; [26]
  Mean duration of virus shedding (SEM), Tx (+) at PIDs 1-5: 3.3 (0.3)
  Mean duration of virus shedding (SEM), Tx (−) at PIDs 6-14: 4.0 (2.0)
  Mean log10 viral titer/rectal swab (GE/ml) (SEM), Overall viral titer shed at PIDs 1-14: 5.17 (0.08)^B log10 GE/ml
  Mean log10 viral titer/rectal swab (GE/ml) (SEM), Tx (+) at PIDs 1-5: 5.28 (0.13)^b,A log10 GE/ml
  Mean log10 viral titer/rectal swab (GE/ml) (SEM), Tx (−) at PIDs 6-14: 5.11 (0.10)^B log10 GE/ml
  fecal viral RNA titers after treatment was discontinued vs 30% DMSO vehicle pigs (in words): significantly lower fecal viral RNA titers
[21]; oral 100 mg/kg once a day for 5 days from day 1 after inoculation
  Mean onset of virus shedding (PID) (SEM): 2.7 (0.3) PID
[22]
  inhibition of the activity of TGEV 3CL protease (in words): remarkably inhibited
[23]
  increase of IC50 at passage number 15: up to 10 fold
[24]
  effectiveness against the replication of HAV in cells (in words): no or weak effectiveness
[25]; [27]
  Mean duration of virus shedding, Tx (+) at PIDs 1-13: 7.5
  Mean onset of virus shedding (PID): 2.3 PID
[25]; HuNoV-inoculated Gn pigs
  effect of oral treatment on virus shedding compared to untreated animals (in words): significantly reduced the duration of virus shedding
[25]; same regimen
  Overall duration of virus shedding at PID1-27: 7.5
[25]; same regimen, after treatment discontinued
  Mean duration of virus shedding, Tx (−) at PIDs 14-27: 0
[25]; [28]
  Mean log10 viral titer/rectal swab (GE/ml), Overall viral titer shed at PIDs 1-27: 4.86 log10 GE/ml
  Mean log10 viral titer/rectal swab (GE/ml), Tx (+) at PIDs 1-13: 4.98 log10 GE/ml
  Mean log10 viral titer/rectal swab (GE/ml), Tx (−) at PIDs 14-27: <4.70 log10 GE/ml
[19]
  effect on the activity of 3CLpro of NV, MD145, MNV-1 (in words): highly effective

— patent US9474759B2 (priority 2011, dated 2016)
